# Reference: paper PMC5218480 (PLoS ONE, 2017)
# Test system: MV-4-11 cells
# Assay: Gene expression microarray analysis (Affymetrix PrimeView) and GSEA
# Format: cell-based, human
# Design: RFU PODN (11730768_x_at) / Fold change /veh PODN (11730768_x_at) / RFU LINC00158 (11744669_a_at) / Fold change /veh LINC00158 (11744669_a_at) / RFU DUSP10 (11751237_a_at) / Fold change /veh DUSP10 (11751237_a_at) / RFU ID3 (11757404_x_at) / Fold change /veh ID3 (11757404_x_at) / RFU PLEKHG5 (11737974_s_at) / Fold change /veh PLEKHG5 (11737974_s_at) / RFU LRRC4B (11730491_at) / Fold change /veh LRRC4B (11730491_at) / RFU GIMAP4 (11747438_a_at) / Fold change /veh GIMAP4 (11747438_a_at) / RFU KRT8 (11758183_x_at) / Fold change /veh KRT8 (11758183_x_at) / RFU CNN1 (11734310_a_at) / Fold change /veh CNN1 (11734310_a_at) / RFU VPS37D (11726825_at) / Fold change /veh VPS37D (11726825_at) / RFU C10orf10 (11716522_x_at) / Fold change /veh C10orf10 (11716522_x_at) / RFU KIR2DL2 /// KIR2DL4 /// KIR2DL5A /// KIR2DL5B /// KIR2DS1 /// KIR2DS2 /// KIR2DS3 /// KIR2DS4 /// KIR3DL3 /// KIR3DL3 /// KIR3DS1 (11738374_at) / Fold change /veh KIR2DL2 /// KIR2DL4 /// KIR2DL5A /// KIR2DL5B /// KIR2DS1 /// KIR2DS2 /// KIR2DS3 /// KIR2DS4 /// KIR3DL3 /// KIR3DL3 /// KIR3DS1 (11738374_at) / RFU C1QL1 (11718748_at) / Fold change /veh C1QL1 (11718748_at) / RFU TMPRSS4 (11747572_a_at) / Fold change /veh TMPRSS4 (11747572_a_at) / RFU HAMP (11756126_x_at) / Fold change /veh HAMP (11756126_x_at) / RFU RNFT2 (11725882_a_at) / Fold change /veh RNFT2 (11725882_a_at) / RFU NR4A2 (11747474_a_at) / Fold change /veh NR4A2 (11747474_a_at) / RFU ABCC12 (11746883_a_at) / Fold change /veh ABCC12 (11746883_a_at) / RFU TMEM136 (11760407_x_at) / Fold change /veh TMEM136 (11760407_x_at) / RFU CLDN22 /// WWC2 (11732394_at) / Fold change /veh CLDN22 /// WWC2 (11732394_at) / RFU HLA-DPB1 (11760878_x_at) / Fold change /veh HLA-DPB1 (11760878_x_at) / RFU SPINT1 (11716480_a_at) / Fold change /veh SPINT1 (11716480_a_at) / RFU GAP43 (11754022_s_at) / Fold change /veh GAP43 (11754022_s_at) / RFU A4GNT (11735810_at) / Fold change /veh A4GNT (11735810_at) / RFU PRB3 (11715151_x_at) / Fold change /veh PRB3 (11715151_x_at) / RFU TUBB4B (11761932_at) / Fold change /veh TUBB4B (11761932_at) / RFU CAPN14 (11732068_a_at) / Fold change /veh CAPN14 (11732068_a_at) / RFU TMCC2 (11721928_a_at) / Fold change /veh TMCC2 (11721928_a_at) / RFU IRGQ (11745062_a_at) / Fold change /veh IRGQ (11745062_a_at) / RFU FAM174B (11720279_a_at) / Fold change /veh FAM174B (11720279_a_at) / RFU TMPRSS4 (11748680_a_at) / Fold change /veh TMPRSS4 (11748680_a_at) / RFU FAM212B (11763350_a_at) / Fold change /veh FAM212B (11763350_a_at) / RFU PLEKHG5 (11743358_a_at) / Fold change /veh PLEKHG5 (11743358_a_at) / RFU ZSCAN30 (11745921_a_at) / Fold change /veh ZSCAN30 (11745921_a_at) / RFU CMKLR1 (11741424_a_at) / Fold change /veh CMKLR1 (11741424_a_at) / RFU LOC101060620 /// MAPK8IP1 (11723275_at) / Fold change /veh LOC101060620 /// MAPK8IP1 (11723275_at) / RFU SPTSSB (11747773_x_at) / Fold change /veh SPTSSB (11747773_x_at) / RFU PRSS12 (11739890_at) / Fold change /veh PRSS12 (11739890_at) / RFU BIN1 (11741810_x_at) / Fold change /veh BIN1 (11741810_x_at) / RFU WNT11 (11732464_a_at) / Fold change /veh WNT11 (11732464_a_at) / RFU C10orf10 (11716521_a_at) / Fold change /veh C10orf10 (11716521_a_at) / RFU C5orf56 (11738089_at) / Fold change /veh C5orf56 (11738089_at) / RFU CYB561 (11721691_x_at) / Fold change /veh CYB561 (11721691_x_at) / RFU ANKRD19P (11752326_a_at) / Fold change /veh ANKRD19P (11752326_a_at) / RFU OR2T12 /// OR2T33 /// OR2T8 (11738714_s_at) / Fold change /veh OR2T12 /// OR2T33 /// OR2T8 (11738714_s_at) / RFU VCAN (11748164_a_at) / Fold change /veh VCAN (11748164_a_at) / RFU JSRP1 (11732532_at) / Fold change /veh JSRP1 (11732532_at) / RFU KRTAP10-11 (11738290_x_at) / Fold change /veh KRTAP10-11 (11738290_x_at) / RFU MYO3A (11730013_a_at) / Fold change /veh MYO3A (11730013_a_at) / RFU EBF3 (11725865_a_at) / Fold change /veh EBF3 (11725865_a_at) / RFU CAMK2N1 (11719241_x_at) / Fold change /veh CAMK2N1 (11719241_x_at) / RFU C5orf56 (11738088_a_at) / Fold change /veh C5orf56 (11738088_a_at) / RFU OLFML3 (11715873_a_at) / Fold change /veh OLFML3 (11715873_a_at) / RFU LOC100653217 /// NTM (11731650_a_at) / Fold change /veh LOC100653217 /// NTM (11731650_a_at) / RFU MAPK11 (11762145_a_at) / Fold change /veh MAPK11 (11762145_a_at) / RFU FIZ1 (11724087_x_at) / Fold change /veh FIZ1 (11724087_x_at) / RFU OASL (11726364_x_at) / Fold change /veh OASL (11726364_x_at) / RFU SOX15 (11748057_x_at) / Fold change /veh SOX15 (11748057_x_at) / RFU CD79A (11719716_a_at) / Fold change /veh CD79A (11719716_a_at) / RFU HIST1H1D (11736915_at) / Fold change /veh HIST1H1D (11736915_at) / RFU CASKIN2 (11723855_a_at) / Fold change /veh CASKIN2 (11723855_a_at) / RFU LOC730098 (11760151_x_at) / Fold change /veh LOC730098 (11760151_x_at) / RFU OR4N2 (11742367_at) / Fold change /veh OR4N2 (11742367_at) / RFU PRRT2 (11749266_a_at) / Fold change /veh PRRT2 (11749266_a_at) / RFU SNX32 (11753110_a_at) / Fold change /veh SNX32 (11753110_a_at) / RFU CDHR5 (11726645_a_at) / Fold change /veh CDHR5 (11726645_a_at) / RFU RCAN1 (11760418_a_at) / Fold change /veh RCAN1 (11760418_a_at) / RFU FAM167A (11723789_a_at) / Fold change /veh FAM167A (11723789_a_at) / RFU FAM26E (11764081_at) / Fold change /veh FAM26E (11764081_at) / RFU ISYNA1 (11749810_s_at) / Fold change /veh ISYNA1 (11749810_s_at) / RFU ACY1 (11761880_at) / Fold change /veh ACY1 (11761880_at) / RFU 11764098_at / Fold change /veh 11764098_at / RFU SAMD14 (11745864_x_at) / Fold change /veh SAMD14 (11745864_x_at) / RFU NPB (11741838_a_at) / Fold change /veh NPB (11741838_a_at) / RFU TMPRSS6 (11731388_a_at) / Fold change /veh TMPRSS6 (11731388_a_at) / RFU KRTAP10-2 (11738614_at) / Fold change /veh KRTAP10-2 (11738614_at) / RFU ARHGAP8 /// PRR5-ARHGAP8 (11727945_x_at) / Fold change /veh ARHGAP8 /// PRR5-ARHGAP8 (11727945_x_at) / RFU KRTAP5-7 /// NADSYN1 (11734609_at) / Fold change /veh KRTAP5-7 /// NADSYN1 (11734609_at) / RFU RASL12 (11751679_a_at) / Fold change /veh RASL12 (11751679_a_at) / RFU CDKN2B (11736163_a_at) / Fold change /veh CDKN2B (11736163_a_at) / RFU PRF1 (11729649_at) / Fold change /veh PRF1 (11729649_at) / RFU, ZNF638 /// ZNF638-IT1 / Fold change vs veh, ZNF638 /// ZNF638-IT1 / RFU, PANK3 / Fold change vs veh, PANK3 / RFU, SH3YL1 / Fold change vs veh, SH3YL1 / RFU, ZEB2 / Fold change vs veh, ZEB2 / RFU, NRIP1 / Fold change vs veh, NRIP1 / RFU, PTTG1IP / Fold change vs veh, PTTG1IP / RFU, CAPN2 / Fold change vs veh, CAPN2 / RFU, MED14 / Fold change vs veh, MED14 / RFU, SNORA58 / Fold change vs veh, SNORA58 / RFU, C1orf63 / Fold change vs veh, C1orf63 / RFU, LRRFIP1 / Fold change vs veh, LRRFIP1 / RFU, NDUFAF7 / Fold change vs veh, NDUFAF7 / RFU, SLC12A2 / Fold change vs veh, SLC12A2 / RFU, IBTK / Fold change vs veh, IBTK / RFU, ESF1 / Fold change vs veh, ESF1 / Fold change vs veh, TMEM50B / RFU, TAOK1 / Fold change vs veh, TAOK1 / RFU, ACBD3 / Fold change vs veh, ACBD3 / RFU, TMA16 / Fold change vs veh, TMA16 / RFU, RWDD3 / Fold change vs veh, RWDD3 / RFU, BCAT1 / Fold change vs veh, BCAT1 / RFU, EDEM3 / Fold change vs veh, EDEM3 / RFU, TMEM33 / Fold change vs veh, TMEM33 / RFU, WDR75 / Fold change vs veh, WDR75 / RFU, AHCTF1 / Fold change vs veh, AHCTF1 / RFU, TFRC / Fold change vs veh, TFRC / RFU, ZDHHC17 / Fold change vs veh, ZDHHC17 / RFU, NOM1 / Fold change vs veh, NOM1 / RFU, ARL8B / Fold change vs veh, ARL8B / RFU, ZBTB11 / Fold change vs veh, ZBTB11 / RFU, TAMM41 / Fold change vs veh, TAMM41 / RFU, KIAA1704 /// LOC100996395 / Fold change vs veh, KIAA1704 /// LOC100996395 / RFU, ING1 / Fold change vs veh, ING1 / RFU, TRMT61B / Fold change vs veh, TRMT61B / RFU, FUBP3 / Fold change vs veh, FUBP3 / RFU, TP53 / Fold change vs veh, TP53 / RFU, TNKS2 / Fold change vs veh, TNKS2 / RFU, ZFP14 / Fold change vs veh, ZFP14 / RFU, ACTR2 / Fold change vs veh, ACTR2 / RFU, PPP3R1 / Fold change vs veh, PPP3R1 / RFU, PIK3R1 / Fold change vs veh, PIK3R1 / RFU, HNRNPA1 / Fold change vs veh, HNRNPA1 / RFU, RNF170 / Fold change vs veh, RNF170 / RFU, ZNF28 / Fold change vs veh, ZNF28 / RFU, RNGTT / Fold change vs veh, RNGTT / RFU, OGT / Fold change vs veh, OGT / RFU, BRD1 / Fold change vs veh, BRD1 / RFU, MARS / Fold change vs veh, MARS / RFU, ZNF655 / Fold change vs veh, ZNF655 / RFU, FAHD1 / Fold change vs veh, FAHD1 / RFU, BDP1 / Fold change vs veh, BDP1 / RFU, LRRCC1 / Fold change vs veh, LRRCC1 / RFU, ARID1A / Fold change vs veh, ARID1A / RFU, ZNF146 / Fold change vs veh, ZNF146 / RFU, ZNF330 / Fold change vs veh, ZNF330 / RFU, GPN3 / Fold change vs veh, GPN3 / RFU, C9orf123 / Fold change vs veh, C9orf123 / RFU, N4BP2L2 / Fold change vs veh, N4BP2L2 / RFU, ARFIP1 / Fold change vs veh, ARFIP1 / RFU, FAM179B / Fold change vs veh, FAM179B / RFU, BCL10 / Fold change vs veh, BCL10 / RFU, UHRF1BP1L / Fold change vs veh, UHRF1BP1L / RFU, BET1 / Fold change vs veh, BET1 / RFU, CNOT2 / Fold change vs veh, CNOT2 / RFU, ZNF268 / Fold change vs veh, ZNF268 / Fold change vs veh, ZNF507 / RFU, DGCR2 / Fold change vs veh, DGCR2 / RFU, WDSUB1 / Fold change vs veh, WDSUB1 / Fold change vs veh, HSP90B1 /// MIR3652 / RFU, ADSS / Fold change vs veh, ADSS / RFU, GK / Fold change vs veh, GK / RFU, ZNF148 / Fold change vs veh, ZNF148 / RFU, TAF9 / Fold change vs veh, TAF9 / RFU, SLC1A5 / Fold change vs veh, SLC1A5 / RFU, SLMO2 / Fold change vs veh, SLMO2 / RFU, ABCC4 / Fold change vs veh, ABCC4 / RFU, LOC101060439 /// RAP1B / Fold change vs veh, LOC101060439 /// RAP1B / RFU, RFX7 / Fold change vs veh, RFX7 / RFU, GTPBP10 / Fold change vs veh, GTPBP10 / RFU, CNEP1R1 / Fold change vs veh, CNEP1R1 / RFU, BIVM-ERCC5 /// ERCC5 / Fold change vs veh, BIVM-ERCC5 /// ERCC5 / RFU, ILF3 / Fold change vs veh, ILF3 / RFU 11762660_at / Fold change /veh 11762660_at / RFU VCAN (11757783_s_at) / Fold change /veh VCAN (11757783_s_at) / RFU DDX43 (11728927_at) / Fold change /veh DDX43 (11728927_at) / RFU KRT8 (11758188_x_at) / Fold change /veh KRT8 (11758188_x_at) / RFU NKD1 (11759106_at) / Fold change /veh NKD1 (11759106_at) / RFU SRD5A1 (11742802_a_at) / Fold change /veh SRD5A1 (11742802_a_at) / RFU TPSAB1 /// TPSB2 (11721975_s_at) / Fold change /veh TPSAB1 /// TPSB2 (11721975_s_at) / RFU GSTM3 (11746129_a_at) / Fold change /veh GSTM3 (11746129_a_at) / RFU IL23R (11737362_x_at) / Fold change /veh IL23R (11737362_x_at) / RFU TMEM51 (11727254_a_at) / Fold change /veh TMEM51 (11727254_a_at) / RFU PIWIL2 (11732686_x_at) / Fold change /veh PIWIL2 (11732686_x_at) / RFU ORM1 (11744905_x_at) / Fold change /veh ORM1 (11744905_x_at) / RFU CCDC152 (11743942_at) / Fold change /veh CCDC152 (11743942_at) / RFU ECM1 (11717891_a_at) / Fold change /veh ECM1 (11717891_a_at) / RFU IL23R (11748794_a_at) / Fold change /veh IL23R (11748794_a_at) / RFU TNFAIP8L3 (11732012_x_at) / Fold change /veh TNFAIP8L3 (11732012_x_at) / RFU MBOAT4 (11741988_at) / Fold change /veh MBOAT4 (11741988_at) / RFU 11764193_at / Fold change /veh 11764193_at / RFU TMEM53 (11763286_at) / Fold change /veh TMEM53 (11763286_at) / RFU MAGEB2 (11727129_at) / Fold change /veh MAGEB2 (11727129_at) / RFU TMEM200A (11744735_a_at) / Fold change /veh TMEM200A (11744735_a_at) / RFU CCDC152 (11751479_a_at) / Fold change /veh CCDC152 (11751479_a_at) / RFU FAM211A (11726209_a_at) / Fold change /veh FAM211A (11726209_a_at) / RFU RGS16 (11746705_a_at) / Fold change /veh RGS16 (11746705_a_at) / RFU VCAN (11755009_s_at) / Fold change /veh VCAN (11755009_s_at) / RFU RHOB (11743442_s_at) / Fold change /veh RHOB (11743442_s_at) / RFU RGS16 (11720943_a_at) / Fold change /veh RGS16 (11720943_a_at) / RFU RGS16 (11720944_at) / Fold change /veh RGS16 (11720944_at) / RFU, VPS4B / Fold change vs veh, VPS4B / RFU, CREB1 / Fold change vs veh, CREB1 / RFU, DNAJC13 / Fold change vs veh, DNAJC13 / RFU, GNAQ / Fold change vs veh, GNAQ / RFU, CDK5R1 / Fold change vs veh, CDK5R1 / RFU, ZRANB3 / Fold change vs veh, ZRANB3 / RFU, CUL4A / Fold change vs veh, CUL4A / RFU, CCNY / Fold change vs veh, CCNY / RFU, UFL1 / Fold change vs veh, UFL1 / RFU, COG3 / Fold change vs veh, COG3 / RFU, DIAPH2 / Fold change vs veh, DIAPH2 / RFU, SKA2 / Fold change vs veh, SKA2 / RFU, AFF3 / Fold change vs veh, AFF3 / RFU, LMF1 / Fold change vs veh, LMF1 / RFU, IPO11 / Fold change vs veh, IPO11 / RFU, DFFB / Fold change vs veh, DFFB / RFU, FOXP1 / Fold change vs veh, FOXP1 / RFU, CARD8 / Fold change vs veh, CARD8 / RFU, STRN3 / Fold change vs veh, STRN3 / RFU, ADK / Fold change vs veh, ADK / RFU, RASSF2 / Fold change vs veh, RASSF2 / RFU, WIPF1 / Fold change vs veh, WIPF1 / RFU, LARP1B / Fold change vs veh, LARP1B / RFU, RASA1 / Fold change vs veh, RASA1 / RFU, RB1 / Fold change vs veh, RB1 / RFU, PPFIA1 / Fold change vs veh, PPFIA1 / RFU, MAT2A / Fold change vs veh, MAT2A / RFU, CCT5 / Fold change vs veh, CCT5 / RFU, WDR92 / Fold change vs veh, WDR92 / RFU, CUX1 / Fold change vs veh, CUX1 / RFU, TTC7A / Fold change vs veh, TTC7A / RFU, TMEM135 / Fold change vs veh, TMEM135 / RFU, DEPTOR / Fold change vs veh, DEPTOR / RFU, CPM / Fold change vs veh, CPM / RFU, DNAJB6 / Fold change vs veh, DNAJB6 / RFU, CACNA2D3 / Fold change vs veh, CACNA2D3 / RFU, DTX4 / Fold change vs veh, DTX4 / RFU, TFCP2 / Fold change vs veh, TFCP2 / RFU, GMCL1 /// GMCL1P1 / Fold change vs veh, GMCL1 /// GMCL1P1 / RFU, AEBP2 / Fold change vs veh, AEBP2 / RFU, SNHG1 /// SNORD22 /// SNORD25 /// SNORD26 /// SNORD27 /// SNORD28 /// SNORD29 /// SNORD31 / Fold change vs veh, SNHG1 /// SNORD22 /// SNORD25 /// SNORD26 /// SNORD27 /// SNORD28 /// SNORD29 /// SNORD31 / Fold change (Aza/veh), C12orf56 (ProbeSet 11735607_a_at) / Fold change (ACY-1035/veh), C12orf56 (ProbeSet 11735607_a_at) / Fold change (Aza/veh), FGFR1OP (ProbeSet 11751329_s_at) / Fold change (ACY-1035/veh), FGFR1OP (ProbeSet 11751329_s_at) / Fold change (Aza/veh), VPS36 (ProbeSet 11739960_a_at) / Fold change (ACY-1035/veh), VPS36 (ProbeSet 11739960_a_at) / RFU SYPL1 (11715823_x_at) / Fold change /veh SYPL1 (11715823_x_at) / RFU IGFBP7 (11715501_s_at) / Fold change /veh IGFBP7 (11715501_s_at) / RFU REEP3 (11722064_at) / Fold change /veh REEP3 (11722064_at) / RFU IGLL1 (11728026_x_at) / Fold change /veh IGLL1 (11728026_x_at): dose or concentration left out as unconfirmed
# Conditions: ProbeSet 11750457_a_at; LIST B
compound,measurement,value
Nc1ncn([C@@H]2O[C@H](CO)[C@@H](O)[C@H]2O)c(=O)n1 [azacitidine],"Fold change vs veh, GTPBP10",0.84
